Experimental data taken from ChEMBL document CHEMBL1144924, “Calculation of the binding affinity of beta-secretase inhibitors using the linear interaction energy method” (J Med Chem, 2003).

Biological target: Beta-secretase 1 (Homo sapiens, UniProt P56817)
Test: Binding affinity for human brain memapsin 2 beta-Secretase (BACE)

Beta-secretase 1, sequence (P56817 whole entry): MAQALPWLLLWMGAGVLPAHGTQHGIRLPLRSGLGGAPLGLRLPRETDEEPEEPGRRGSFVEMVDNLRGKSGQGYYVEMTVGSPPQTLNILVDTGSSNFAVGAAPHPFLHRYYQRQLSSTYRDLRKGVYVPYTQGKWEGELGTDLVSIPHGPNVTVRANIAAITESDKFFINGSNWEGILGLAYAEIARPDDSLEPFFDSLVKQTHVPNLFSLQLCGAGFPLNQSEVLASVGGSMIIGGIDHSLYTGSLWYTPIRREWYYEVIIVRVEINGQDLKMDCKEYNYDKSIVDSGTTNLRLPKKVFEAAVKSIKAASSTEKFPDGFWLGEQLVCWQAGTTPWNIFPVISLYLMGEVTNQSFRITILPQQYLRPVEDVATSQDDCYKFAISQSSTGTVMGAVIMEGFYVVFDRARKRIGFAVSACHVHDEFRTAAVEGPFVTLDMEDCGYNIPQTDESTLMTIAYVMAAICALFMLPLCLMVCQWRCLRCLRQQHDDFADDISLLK

Compound | Ki [nM]
CC(C)C[C@H](NC(=O)[C@H](CS(C)(=O)=O)NC(=O)OC(C)(C)C)C(O)CC(C)C(=O)NC(C(=O)NCc1ccccc1)C(C)C (some centres undefined) | 1130
CC(C)C[C@H](NC(=O)[C@H](CC(N)=O)NC(=O)OC(C)(C)C)C(O)CC(C)C(=O)NC(C(=O)NCc1ccccc1)C(C)C (some centres undefined) | 3130
CC(C)C[C@H](NC(=O)[C@H](CC(N)=O)NC(=O)OC(C)(C)C)C(O)CC(C)C(=O)NC(C)C(=O)NCc1ccccc1 (some centres undefined) | 22400
CC(C)C[C@H](NC(=O)C(CC(N)=O)NC(=O)[C@@H](NC(=O)OC(C)(C)C)C(C)C)C(O)CC(C)C(=O)NC(C)C(=O)NCc1ccccc1 (some centres undefined) | 61.4
CSCCC(NC(=O)OC(C)(C)C)C(=O)N[C@@H](CC(C)C)C(O)CC(C)C(=O)NC(C(=O)NCc1ccccc1)C(C)C (some centres undefined) | 5810

These reach a lower Ki. Values come first.

Ki [nM] | Compound
50.1 | CSCC(NC(=O)[C@@H](NC(=O)OC(C)(C)C)C(C)C)C(=O)N[C@@H](CC(C)C)C(O)CC(C)C(=O)NC(C(=O)NCc1ccccc1)C(C)C (some centres undefined)
9.4 | CC(C)C[C@H](NC(=O)C(CS(C)(=O)=O)NC(=O)[C@@H](NC(=O)OC(C)(C)C)C(C)C)C(O)CC(C)C(=O)NC(C(=O)NCc1ccccc1)C(C)C (some centres undefined)
5.9 | CC(C)C[C@H](NC(=O)C(CC(N)=O)NC(=O)[C@@H](NC(=O)OC(C)(C)C)C(C)C)C(O)CC(C)C(=O)NC(C(=O)NCc1ccccc1)C(C)C (some centres undefined)
2.5 | CSCCC(NC(=O)[C@@H](NC(=O)OC(C)(C)C)C(C)C)C(=O)N[C@@H](CC(C)C)C(O)CC(C)C(=O)NC(C(=O)NCc1ccccc1)C(C)C (some centres undefined)
